Measurements taken from patent publication US20020137929A1, “1 - (3-heterocyclylphenyl) isothiourea, -isourea, -guanidine and -amidine herbicidal agents” (Intellectual Property Department, BASF Aktiengesellschaft, priority 1998, published 2002).

Assays:
ORYSAT (Rice, Tebonnet) [1] = assay: Rice tolerance to post-transplant applications, flooded paddy conditions (Table III); assay type: in vivo, Oryza sativa, (L.) Tebonnet; details: in vivo
Protocol: (§1) Results of herbicide evaluation are expressed on a rating scale (0-9). The scale is based upon a visual observation of plant stand, vigor, malformation, size, chlorosis and overall plant appearance as compared with a control.
The tolerance of transplanted rice to post-transplanted herbicide applications is determined as follows: two ten-day-old rice seedlings (cv. Tebonnet) are transplanted into silt loam soil in 32 oz. plastic containers with a diameter of 10.5 cm and no drainage holes. After transplanting, the containers are flooded and the water level is maintained at 1.5 to 3 cm above the soil surface. Three days after transplanting, the flooded soil surface of the containers is treated with the selected aqueous/acetone 50/50 v/v mixture containing the test compounds to provide the equivalent of about 0.0313 to 0.500 kg/ha of active ingredient. The treated containers are placed on greenhouse benches, watered such that the water level is maintained as stated above, and cared for in accordance with conventional greenhouse procedures. Three to four weeks after treatment, the test is terminated and each container is examined and herbicidal effect rated according to the rating system provided in Example 37. The compounds evaluated are reported by compound number given in Example 37.
Plant species employed in this example are reported by header abbreviation, common name and scientific name.

[2] = test system: ECHORC (Watergrass (Calif.)); assay: Preemergence weed control under flooded paddy conditions; assay type: in vivo, Echinochloa oryzoides; details: rated 3-4 weeks after treatment
Method in brief: (§2)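 Herbicidal effect is scored visually on a 0-9 scale against an untreated control, three to four weeks after compounds are pipetted into the flood water (1.5 to 3 cm deep) over seeds planted in silt loam at 0.5 cm depth. Rates: about 0.0313 to 0.500 kg/ha.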

CYPIR (Rice Flatsedge) = assay: as above; assay type: in vivo, Cyperus iria; details: rated 3-4 weeks after treatment
Method in brief: as §2

MOOVA (Monochoria) = assay: Postemergence weed control under flooded paddy conditions; assay type: in vivo, Monochoria vaginalis; details: postemergence weeds, 3-4 weeks after treatment
Method in brief: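 Flood-water application, about 0.0313–0.500 kg/ha a.i. in aqueous/acetone 50/50 v/v; water depth 1.5–3 cm throughout. Weeds 3–5 cm, rice 1.5–2.5 leaf. Greenhouse; 0–9 visual rating vs control at 3–4 wk.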

[3] = test system: SAGPY (Arrowhead (Pygmaea)); assay: Preemergence weed control under flooded paddy conditions; assay type: in vivo, Sagittaria pygmaea; details: rated 3-4 weeks after treatment
Method in brief: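 Values are visual 0-9 scores against a control for a preemergence application into paddy flood water at about 0.0313 to 0.500 kg/ha. Greenhouse duration was three to four weeks.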

ABUTH (Velvetleaf) = assay: Preemergence herbicidal evaluation; assay type: in vivo, Abutilon theophrasti; details: rated 4-5 weeks after treatment
Method in brief: (§3)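 Each species is sown separately in potting soil over roughly an inch of soil before any emergence. The soil surface then receives an aqueous acetone spray delivering about 0.0156 to 0.500 kg/ha of compound. After four to five weeks, injury is scored from 0 to 9 relative to a control.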

[4] = test system: TRZAWR (Wheat, Winter, cv Riband); assay: Preemergence herbicidal evaluation; assay type: in vivo, Triticum aestivum; details: rated 4-5 weeks after treatment
Method in brief: as §3

ORYSAT (Rice, Tebonnet) [5] = assay: Rice tolerance to post-transplant applications, flooded paddy conditions (Table IV); assay type: in vivo, Oryza sativa, (L.) Tebonnet; details: in vivo
From the text: as §1
Plastic containers containing weeds which are 3 to 5 cm tall and rice seedlings at the 1.5 to 2.5 leaf stage are flooded with water. The water is maintained at 1.5 to 3 cm above the soil surface for the duration of the experiment. Test compounds are applied as aqueous/ acetone mixtures 50/50 v/v directly into the flood water to provide the equivalent of about 0.0313 to 0.500 kg/ha of active ingredient. The treated containers are placed on greenhouse benches and cared for in accordance with conventional greenhouse procedures. Three to four weeks after treatment, the test is terminated and each container is examined and herbicidal effect rated according to the rating system provided in Example 37. The compounds evaluated are reported by compound number given in Example 37.

2-{{2-Chloro-5-[3,6-dihydro-3-methyl-2,6-dioxo-4-(trifluoromethyl)-1(2H)-pyrimidinyl]-4-fluoro-phenyl}imino}-4-oxo-3,5-thiazolidenediacetic acid, 3-ethyl (2-propynyl) ester, (2:1) mixture with di-2-propynyl ester [Compound 58]
ORYSAT herbicidal effect rating (rice tolerance) (ORYSAT (Rice, Tebonnet) [1]): 4.0
ECHORC herbicidal effect rating ([2]; 0.0313 kg/ha): 7.0
Herbicidal rating ECHORC ([2]; 0.0625 kg/ha): 7.0
Herbicidal rating ECHORC ([2]; 0.1250 kg/ha): 7.0
Herbicidal rating ECHORC ([2]; 0.2500 kg/ha): 9.0
CYPIR herbicidal effect rating (CYPIR (Rice Flatsedge); 0.0313 kg/ha): 0.0
Herbicidal rating CYPIR (CYPIR (Rice Flatsedge); 0.0625 kg/ha): 0.0
Herbicidal rating CYPIR (CYPIR (Rice Flatsedge); 0.1250 kg/ha): 2.0
Herbicidal rating CYPIR (CYPIR (Rice Flatsedge); 0.2500 kg/ha): 3.0
Herbicidal rating MOOVA (MOOVA (Monochoria); rate 0.0313 kg/ha): 0.0
Herbicidal rating MOOVA (MOOVA (Monochoria); rate 0.0625 kg/ha): 0.0
Herbicidal rating MOOVA (MOOVA (Monochoria); rate 0.1250 kg/ha): 3.0
Herbicidal rating MOOVA (MOOVA (Monochoria); rate 0.2500 kg/ha): 9.0
SAGPY herbicidal effect rating ([3]; 0.0313 kg/ha): 0.0
Herbicidal rating SAGPY ([3]; 0.0625 kg/ha): 0.0
Herbicidal rating SAGPY ([3]; 0.1250 kg/ha): 0.0
Herbicidal rating SAGPY ([3]; 0.2500 kg/ha): 4.0

CCOC(=O)CN1C(=O)C(CC(=O)O)SC1=Nc1cc(-n2c(=O)cc(C(F)(F)F)n(C)c2=O)c(Cl)cc1Cl (centres unmarked) [Compound 33, 2-{{2,4-Dichloro-5-[3,6-dihydro-3-methyl-2,6-dioxo-4-(trifluoromethyl)-1(2H)-pyrimidinyl]phenyl}-imino}-4-oxo-3,5-thiazolidinediacetic acid, 3-ethyl ester]
Herbicidal rating ORYSAT (rice tolerance) (ORYSAT (Rice, Tebonnet) [1]): 0.0
Preemergence herbicidal rating ABUTH (ABUTH (Velvetleaf); rate 0.0156 kg/ha): 0.0
Preemergence herbicidal rating ABUTH (ABUTH (Velvetleaf); rate 0.0313 kg/ha): 0.0
Preemergence herbicidal rating ABUTH (ABUTH (Velvetleaf); rate 0.0625 kg/ha): 9.0
Preemergence herbicidal rating ABUTH (ABUTH (Velvetleaf); rate 0.1250 kg/ha): 9.0
Preemergence herbicidal rating ABUTH (ABUTH (Velvetleaf); rate 0.2500 kg/ha): 9.0
Herbicidal rating ECHORC ([2]; 0.2500 kg/ha): 0.0
Preemergence herbicidal rating TRZAWR ([4]; rate 0.0156 kg/ha): 0.0
Preemergence herbicidal rating TRZAWR ([4]; rate 0.0313 kg/ha): 0.0
Preemergence herbicidal rating TRZAWR ([4]; rate 0.0625 kg/ha): 0.0
Preemergence herbicidal rating TRZAWR ([4]; rate 0.1250 kg/ha): 0.0
Preemergence herbicidal rating TRZAWR ([4]; rate 0.2500 kg/ha): 0.0
Herbicidal rating CYPIR (CYPIR (Rice Flatsedge); 0.2500 kg/ha): 0.0
Herbicidal rating ORYSAT (rice tolerance) (ORYSAT (Rice, Tebonnet) [5]): 0.0
Herbicidal rating SAGPY ([3]; 0.2500 kg/ha): 0.0
